Measured values reported in paper PMC5972579 (Brain, 2018).

Tests used:
GPR52 [1] = biological target: T1, GPR52 (Homo sapiens, UniProt Q9Y2T5); assay: intracellular cAMP HTRF assay; format: cell-based
GPR52 [2] = biological target: T1, GPR52; assay: inhibition of WO-[…])-stimulated cAMP; format: cell-based

T1 sequence (Q9Y2T5 whole entry): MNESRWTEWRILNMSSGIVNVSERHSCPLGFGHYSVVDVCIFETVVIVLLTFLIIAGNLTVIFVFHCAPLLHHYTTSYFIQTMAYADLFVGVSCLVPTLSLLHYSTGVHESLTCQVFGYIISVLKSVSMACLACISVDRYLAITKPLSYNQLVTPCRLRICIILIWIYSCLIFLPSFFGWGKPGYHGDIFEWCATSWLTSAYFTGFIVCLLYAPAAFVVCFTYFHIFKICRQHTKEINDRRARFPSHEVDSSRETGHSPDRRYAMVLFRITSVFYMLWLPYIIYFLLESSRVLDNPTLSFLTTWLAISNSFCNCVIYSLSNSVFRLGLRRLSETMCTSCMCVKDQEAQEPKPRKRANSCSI

SMILES	EC50 (GPR52 [1])	IC50 (GPR52 [2])
Cc1nn(-c2cccc3cc(Cc4cccc(C(F)(F)F)c4)sc23)cc1C(=O)NCCO [WO-459, N-(2-hydroxyethyl)-3-methyl-1-[2-[3-(trifluoromethyl)benzyl]benzothiophen-7-yl]-1H-pyrazole-4-carboxamide]	6 ± 0.7 nM	
C=C1C(=O)O[C@@H]2/C=C(\C)CC3C=C(C[C@H](OC(=O)/C(C)=C\C)[C@@H]12)C(=O)O3 (mixture of isomers) [E7, (3S,4R,8R,9E)-10-methyl-5-methylidene-6,14-dioxo-7,13-dioxatricyclo[10.2.1.0⁴,⁸]pentadeca-1(15),9-dien-3-yl (2Z)-2-methylbut-2-enoate]		12 ± 0.7 µM
